From publication PMC11279841, “New Members of the Centrapalus Coumarin and Pauciflorin Series from Centrapalus pauciflorus” (Pharmaceutics, 2024)
Like-named read-outs stand apart in the source and are kept apart here.

Assays:
SiHa cells [1] = system: SiHa cells; set-up: method as in doi:10.1016/j.arabjc.2023.104777; details: previous work; cited from earlier work
MCF-7 cells [2] = details: cited from earlier work
HeLa cells [3] = details: cited from earlier work
A2780 cells [4] = system: A2780 cells; set-up: method as in doi:10.1016/j.arabjc.2023.104777; details: previous work; cited from earlier work
[5] = system: A549, HCT116, SK-HEP-1, and HL-60; set-up: method as in PMID 29641986; details: four cancer cell lines; cited from earlier work
Biomphalaria glabrata = details: cited from earlier work
Bulinus truncatus = details: cited from earlier work
[6] = system: Plasmodium falciparum schizonts; set-up: method as in PMID 9170288; details: in vitro; cited from earlier work
[7] = system: Leishmania major promastigotes; set-up: method as in PMID 9170288; details: in vitro; cited from earlier work
human lymphocytes = system: human lymphocytes; set-up: method as in PMID 9170288; details: cited from earlier work
HeLa cells [8] = assay: MTT antiproliferative assay, HeLa cervical cancer cells; assay type: cell-based, human; details: for inhibition at 10 µM / inhibition at 30 µM: Homo sapiens, read-out: Inhibition (%) ± SEM
Excerpt: (§1) The antiproliferative activities of the isolated compounds were investigated on a panel of human adherent cancer cell lines using the 3-(4,5-dimethylthiazol-2-yl)-2,5-diphenyltetrazolium bromide) (MTT) assay. Cell lines isolated from cervical (HeLa and SiHa), breast (MCF-7 and MDA-MB-231), ovarian cancers (A2780), and non-malignant mouse fibroblasts (NIH/3T3) were purchased from the European Collection of Cell Cultures (Salisbury, UK). The SiHa cell line was obtained from the […] (Manassas, VA, USA). The cell culturing and determination of the antiproliferative effects of the isolated compounds were conducted using a methodology described previously. Calculations were performed using GraphPad Prism 5.01 software (GraphPad Software Inc., San Diego, CA, USA).
(§2) The antiproliferative properties of centrapalus coumarins N (2) and O (5) were investigated against a panel of human adherent tumor cell lines of gynecological origin by in vitro MTT assay (Table 4). The amounts of the other compounds were insufficient for the in vitro assay. Compounds 2 and 5 were tested on the breast (MCF-7, MDA-MB-231), cervical (HeLa, SiHa), and ovarian (A2780) cancer cells in two concentrations (10 and 30 µM). The anticancer agent cisplatin was used as a positive control. […] Non-cancerous mouse fibroblasts (NIH/3T3) were additionally included to characterize the cancer selectivity of the tested compounds. Since compounds 2 and 5 elicited weak action against fibroblasts, lower than against the ovarian cancer cells, their effect detected on A2780 cells could be regarded as selective.

MCF-7 cells [9] = assay: MTT antiproliferative assay, MCF-7 breast cancer cells; assay type: cell-based, human; details: for inhibition at 10 µM / inhibition at 30 µM: Homo sapiens, read-out: Inhibition (%) ± SEM
Excerpt: as §1, §2

SiHa cells [10] = assay: MTT antiproliferative assay, SiHa cervical cancer cells; assay type: cell-based, human; details: for inhibition at 10 µM / inhibition at 30 µM: Homo sapiens, read-out: Inhibition (%) ± SEM
Excerpt: as §1, §2

MDA-MB-231 cells = assay: MTT antiproliferative assay, MDA-MB-231 breast cancer cells; assay type: cell-based, human; details: for inhibition at 10 µM / inhibition at 30 µM: Homo sapiens, read-out: Inhibition (%) ± SEM
Excerpt: as §1, §2

[11] = system: NIH/3T3 mouse fibroblasts; assay: MTT antiproliferative assay, non-malignant NIH/3T3 fibroblasts; assay type: cell-based; details: for inhibition at 10 µM / inhibition at 30 µM: Mus musculus, NIH3T3, read-out: Inhibition (%) ± SEM; for action against fibroblasts (in words): NIH/3T3, lower than against the ovarian cancer cells
Excerpt: as §1, §2

A2780 cells [12] = assay: MTT antiproliferative assay, A2780 ovarian cancer cells; assay type: cell-based, human; details: for IC50: A2780, read-out: Calculated IC50 Value (converted); for inhibition at 10 µM / inhibition at 30 µM: read-out: Inhibition (%) ± SEM
Excerpt: as §1, §2

[13] = system: MCF-7, MDA-MB-231, HeLa, SiHa and A2780 cells; details: previous antiproliferative assay; cited from earlier work
[14] = ref our previous studies, read-out: IC50 (remarkable antiproliferative activity)
[15] = read-out: Calculated IC50 Value (converted)

**Q.** With `C=C[C@@]1(C)C[C@@]2(C=C(C)C(=O)O2)Oc2c1c(=O)oc1cccc(C)c21` [Compound 6] as the compound, how does the IC50 (SiHa cells [1]) read?
**A.** 18.9 µM

**Q.** And the IC50 (MCF-7 cells [2]; previous work, read-out: IC50)?
**A.** 15.3 µM

**Q.** What about the IC50 (HeLa cells [3]; previous work, read-out: IC50) of the same compound?
**A.** 14.6 µM

**Q.** And the IC50 (A2780 cells [4])?
**A.** 29.9 µM

**Q.** With `C/C(=C\CC[C@@]1(C)C=Cc2c(O)cc(C)cc2O1)CC(=O)CC(C)C` [anthopogochromene B] as the compound, how does the “cytotoxic activity (in words)” value [5] read?
**A.** moderate cytotoxic activity

**Q.** Which results are given for Ethuliacoumarin A?
**A.** molluscicidal activity (in words) (Biomphalaria glabrata): molluscicidal activity; molluscicidal activity (in words) (Bulinus truncatus): molluscicidal activity

**Q.** Which IC50 (MCF-7 cells [2]; [14]) does the source give for pauciflorin F here?
**A.** < 10 µM

**Q.** And the IC50 (HeLa cells [3]; [14])?
**A.** < 10 µM

**Q.** What does the source list for centrapalus coumarin B?
**A.** IC50 (MCF-7 cells [2]; [14]): < 10 µM; IC50 (HeLa cells [3]; [14]): < 10 µM

**Q.** Which “activity against Plasmodium falciparum schizonts (in words)” value [6] does the source give for `Cc1cccc2oc(=O)c3c(c12)O[C@@H](C)[C@@]3(C)CC(=O)[C@@H]1OC1(C)C` [2′-epicycloisobrachycoumarinone epoxide] here?
**A.** exhibited activity

**Q.** And the “activity against Leishmania major promastigotes (in words)” value [7]?
**A.** exhibited activity

**Q.** And the “inhibition on the proliferation of human lymphocytes (in words)” value (human lymphocytes)?
**A.** weak inhibition

**Q.** For `C=C[C@]1(C)C[C@@H](C=C(C)C)Oc2c1c(=O)oc1cccc(C)c21` [Compound 7, Centrapalus coumarin A], which IC50 (MCF-7 cells [2]; [14]) is on record?
**A.** < 10 µM

**Q.** What about the IC50 (HeLa cells [3]; previous work, read-out: IC50) of the same compound?
**A.** 9.21 µM

**Q.** What about the IC50 (HeLa cells [3]; [14]) of the same compound?
**A.** < 10 µM

**Q.** And the IC50 (A2780 cells [4])?
**A.** 19.7 µM

**Q.** With `C=CC1(C)CC(=O)C2C(=O)c3c(C)cccc3OC21C1(C)Cc2c(c3c(C)cccc3oc2=O)O1` (centres unmarked) [Compound 2, centrapalus coumarin N] as the compound, how does the inhibition at 10 µM (HeLa cells [8]; 10 µM) read?
**A.** < 20%

**Q.** And the inhibition at 30 µM (HeLa cells [8]; 30 µM)?
**A.** 41.8 ± 1.42%

**Q.** And the inhibition at 10 µM (MCF-7 cells [9]; MCF7, 10 µM)?
**A.** 34.6 ± 2.19%

**Q.** And the inhibition at 30 µM (MCF-7 cells [9]; MCF7, 30 µM)?
**A.** 44.2 ± 1.76%

**Q.** And the inhibition at 10 µM (SiHa cells [10]; 10 µM)?
**A.** < 20%

**Q.** And the inhibition at 30 µM (SiHa cells [10]; 30 µM)?
**A.** 30.7 ± 1.49%

**Q.** And the inhibition at 10 µM (MDA-MB-231 cells; MDA-MB-231, 10 µM)?
**A.** < 20%

**Q.** What about the inhibition at 30 µM (MDA-MB-231 cells; MDA-MB-231, 30 µM) of the same compound?
**A.** 25.4 ± 2.06%

**Q.** What about the inhibition at 10 µM ([11]; NIH/3T3, 10 µM) of the same compound?
**A.** < 20%

**Q.** What about the inhibition at 30 µM ([11]; NIH/3T3, 30 µM) of the same compound?
**A.** 48.5 ± 2.2%

**Q.** And the “action against fibroblasts (in words)” value [11]?
**A.** weak action

**Q.** What about the IC50 (A2780 cells [12]; Homo sapiens) of the same compound?
**A.** 20.1 µM

**Q.** And the inhibition at 10 µM (A2780 cells [12]; Homo sapiens, A2780, 10 µM)?
**A.** 27.7 ± 1.34%

**Q.** What about the inhibition at 30 µM (A2780 cells [12]; Homo sapiens, A2780, 30 µM) of the same compound?
**A.** 66.2 ± 0.7%

**Q.** And the “antiproliferative activity against ovarian cancer cells (in words)” value (A2780 cells [12])?
**A.** considerable and selective

**Q.** For `N.N.[Cl][Pt][Cl]` [Cisplatin, cisplatin, reference compound], which “Inhibition (%) ± SEM” value (HeLa cells [8]; 10 µM) is on record?
**A.** 42.61 ± 2.33%

**Q.** What about the “Inhibition (%) ± SEM” value (HeLa cells [8]; 30 µM) of the same compound?
**A.** 99.93 ± 0.26%

**Q.** What about the IC50 (HeLa cells [8]; [15]) of the same compound?
**A.** 12.4 µM

**Q.** And the “Inhibition (%) ± SEM” value (MCF-7 cells [9]; MCF7, 10 µM)?
**A.** 66.91 ± 1.81%

**Q.** And the “Inhibition (%) ± SEM” value (MCF-7 cells [9]; MCF7, 30 µM)?
**A.** 96.80 ± 0.35%

**Q.** And the IC50 (MCF-7 cells [9]; MCF7, read-out: Calculated IC50 Value (converted))?
**A.** 5.78 µM

**Q.** And the “Inhibition (%) ± SEM” value (SiHa cells [10]; 10 µM)?
**A.** 60.98 ± 0.92%

**Q.** What about the “Inhibition (%) ± SEM” value (SiHa cells [10]; 30 µM) of the same compound?
**A.** 88.95 ± 0.53%

**Q.** What about the IC50 (SiHa cells [10]; [15]) of the same compound?
**A.** 4.29 µM

**Q.** What about the “Inhibition (%) ± SEM” value (MDA-MB-231 cells; MDA-MB-231, 10 µM) of the same compound?
**A.** 42.72 ± 2.68%

**Q.** What about the “Inhibition (%) ± SEM” value (MDA-MB-231 cells; MDA-MB-231, 30 µM) of the same compound?
**A.** 86.44 ± 0.42%

**Q.** And the IC50 (MDA-MB-231 cells; MDA-MB-231, read-out: Calculated IC50 Value (converted))?
**A.** 10.2 µM

**Q.** And the “Inhibition (%) ± SEM” value ([11]; NIH/3T3, 10 µM)?
**A.** 73.88 ± 1.63%

**Q.** And the “Inhibition (%) ± SEM” value ([11]; NIH/3T3, 30 µM)?
**A.** 97.10 ± 0.15%

**Q.** And the IC50 ([11]; NIH/3T3, read-out: Calculated IC50 Value (converted))?
**A.** 5.5 µM

**Q.** And the “Inhibition (%) ± SEM” value (A2780 cells [12]; A2780, 10 µM)?
**A.** 83.57 ± 2.21%

**Q.** And the “Inhibition (%) ± SEM” value (A2780 cells [12]; A2780, 30 µM)?
**A.** 95.02 ± 0.28%

**Q.** And the IC50 (A2780 cells [12])?
**A.** 1.3 µM

**Q.** What does the source list for `C=C[C@@]1(C)C[C@@H](/C=C(\C)C(=O)OC)Oc2c1c(=O)oc1cccc(C)c21` [Compound 5, (3′R),(5′S)-(E)-methyl 3-(4,10-dimethyl-5-oxo-4-vinyl-2,3,4,5-tetrahydropyrano[3,2-c]chromen-2-yl)-2-methyl acrylate]?
**A.** inhibition at 10 µM (HeLa cells [8]; 10 µM): < 20%; inhibition at 30 µM (HeLa cells [8]; 30 µM): 31.3 ± 1.18%; inhibition at 10 µM (MCF-7 cells [9]; MCF7, 10 µM): < 20%; inhibition at 30 µM (MCF-7 cells [9]; MCF7, 30 µM): 35.5 ± 1.51%; inhibition at 10 µM (SiHa cells [10]; 10 µM): < 20%; inhibition at 30 µM (SiHa cells [10]; 30 µM): 33.3 ± 1.32%; inhibition at 10 µM (MDA-MB-231 cells; MDA-MB-231, 10 µM): < 20%; inhibition at 30 µM (MDA-MB-231 cells; MDA-MB-231, 30 µM): 25.5 ± 1.2%; inhibition at 10 µM ([11]; NIH/3T3, 10 µM): < 20%; inhibition at 30 µM ([11]; NIH/3T3, 30 µM): 28.4 ± 2.5%; action against fibroblasts (in words) [11]: weak action; IC50 (A2780 cells [12]; Homo sapiens): 16 µM; inhibition at 10 µM (A2780 cells [12]; Homo sapiens, A2780, 10 µM): 27.4 ± 1.55%; inhibition at 30 µM (A2780 cells [12]; Homo sapiens, A2780, 30 µM): 69.3 ± 1.12%; antiproliferative activity against ovarian cancer cells (in words) (A2780 cells [12]): considerable and selective

**Q.** For centrapalus coumarin F, which IC50 (MCF-7 cells [2]; [14]) is on record?
**A.** < 10 µM

**Q.** What about the IC50 (HeLa cells [3]; [14]) of the same compound?
**A.** < 10 µM

**Q.** With isoethuliacoumarin A as the compound, how does the “molluscicidal activity (in words)” value (Biomphalaria glabrata) read?
**A.** molluscicidal activity

**Q.** What about the “molluscicidal activity (in words)” value (Bulinus truncatus) of the same compound?
**A.** molluscicidal activity

**Q.** For `CC1=C[C@H](C[C@]2(C)c3c(c4c(C)cccc4oc3=O)O[C@@H]2C)OC1=O` [Compound 8, Hoehnelia coumarin], which “antiproliferative activity (in words)” value [13] is on record?
**A.** ineffective

**Q.** Which results are given for `Cc1cccc2oc(=O)c3c(c12)O[C@H](C)[C@@]3(C)CC(=O)[C@@H]1OC1(C)C` [cycloisobrachycoumarinone epoxide]?
**A.** activity against Plasmodium falciparum schizonts (in words) [6]: exhibited activity; activity against Leishmania major promastigotes (in words) [7]: exhibited activity; inhibition on the proliferation of human lymphocytes (in words) (human lymphocytes): weak inhibition
